PMC4949444 (Scientific Reports, 2016)

Key:
[1] = test system: QA-induced excitotoxicity in CD1 mice; experiment: Intrastriatal QA-induced model of Huntington's disease; format: in vivo
Protocol: Figure 5 Protective action of VCE-003.2 administration in QA-induced excitotoxicity in vivo. (a) CD1 mice were subjected to quinolinic acid (QA) intrastriatal injection and RotaRod performance (fold change) was determined 2 days after lesion in vehicle- and VCE-003.2-treated mice (10 mg/kg). (b) Representative MRI images (Upper panel) and edema volume quantification (lower panel) 5 days after QA injection. Values are expressed as means ± SEM. Sham-Veh and Sham-VCE (n = 7 in each group); QA-Veh (n = 8); QA-VCE (n = 7). **p < 0.01, ***p < 0.001 vs. Vehicle. ^#p < 0.05 vs. QA.
Figure 6 Neuroprotection and attenuation of glial reactivity by VCE-003.2 in QA-induced excitotoxicity in vivo. (a) Representative immunofluorescence images of DARPP32, GFAP, Iba-1 are shown in sham and QA-injected mice treated with vehicle or VCE-003.2 (10 mg/kg). (b) Immunoreactivity of the different markers was quantified with Image J software and referred to the striatal surface analyzed. Values are expressed as means ± SEM. Sham-Veh and Sham-VCE (n = 3); QA-Veh (n = 8); QA-VCE (n = 6). **p < 0.01, ***p < 0.001 vs. QA. Bar size, 200 μm.
Mice were housed under standard conditions (12-h light/dark cycle) in groups with access to food and water ad libitum. All experiments were performed in accordance with European Union guideline and approved by the Animal Research Ethic Committee of Córdoba University (2014PI/017) (3NP model) and by the Animal Research Ethic Committee of Complutense University (CEA-UCM 73/2012) (QA model). Procedures were designed to minimize the number of animals used and their suffering. Excitotoxicity was induced by intrastriatal quinolinic acid (QA) administration (100 nmol in 1 μL PBS solution, unilaterally) as previously described[41] at the following coordinates: +0.6 posterior to bregma, +1.85 medio-lateral and -2.7 dorso-ventral to dura, in 12-week-old CD1 male mice (Harlan Ibérica, Barcelona, Spain). Pharmacological manipulation with VCE-003.2 (10 mg/kg body weight) was performed i.p. daily in 2% Tween 20 and 3% DMSO in saline buffer until sacrifice. Control animals received the corresponding vehicle injections. Motor function was assessed by RotaRod analysis conducted with acceleration from 4 to 40 rpm over a period of 570 s in an LE8200 device (Harvard Apparatus, Barcelona, Spain). […] 3NP-treated animals and their respective non-lesioned controls (injected with PBS) were used for pharmacological studies with VCE-003.2. Treatments consisted of 4 i.p. injections every 24 h with 20 mg/kg VCE-003.2 or vehicle (4% DMSO plus 6,2% Tween 20 in saline buffer), with the first and the last injections 30 min before the first and the last injections of 3NP, respectively. In some experiments, mice received a combination of VCE-003.2 and the PPARγ antagonist T0070907 (5 mg/kg) injected 15 minutes before VCE-003.2. In 3NP-lesioned mice, motor activity, hindlimb clasping, dystonia, and truncal dystonia were evaluated following previously described procedures. All behavioural tests were conducted prior to drug injections to avoid acute effects of the compounds under investigation and all animals were euthanized 12 h after the last injection of 3NP and their brains removed. The right hemispheres were used to dissect the striatum which was frozen in RNAlater (Sigma-Aldrich) and stored at −80 °C for biochemical analyses. […]

[2] = test system: mutant huntingtin (mut-Htt) aggregates in striatal STHdh cells; experiment: Mutant huntingtin aggregation in transfected STHdh cells; format: cell-based, mouse; conditions: STHdh cells transfected with exon 1 mut-htt, 94 polyglutamine repeats
Protocol: Figure 4 In vitro neuroprotective action of VCE-003.2. (a) HiB5 cells were treated with quinolinic acid (QA; 2,5 mM) in the presence or the absence of VCE-003.2 (50 and 250 nM) and cell viability was determined after 24 h by the MTT assay. (b) QA-induced apoptosis measured by cleaved caspase 3 immunostaining (upper panel) of differentiating HiB5 cells was quantified in the presence or absence of VCE-003.2 (250 nM). Cell counts were referred to total cell nuclei counterstained with DAPI and c-caspase3^+ cell quantification is shown in the lower panel. […]. (d) Aggregation of mut-Htt was assessed by fluorescence microscopy in immortalized striatal STHdh transfected cells with a CFP-tagged expression vector of mutant huntingtin (mut-Htt) and counterstained with fluorescent phalloidin (upper panel). […]. Results are representative of three independent experiments. Values are expressed as means ± S. D. *p < 0.05 and ***p < 0.001 vs. Vehicle; ^#p < 0.05 ^##p < 0.01 vs. QA. […]
The HiB5 hippocampal progenitor cell line (kindly provided by Prof. Z. Kokaia, Lund Stem Cell Center, Sweden) was grown as described[46] in DMEM supplemented with 2 mM glutamine, 1% penicillin/streptomycin and 10% (v/v) fetal calf serum (FCS; Lonza, Switzerland). […] Cell viability was determined after 24 h using the 3-[4,5-dimethylthiazol-2-yl]-2,5-diphenyltetrazolium bromide (MTT) tesresults int. […]

CCCCCC1=C(NCC)C(=O)C(C/C=C(\C)CCC=C(C)C)=C(O)C1=O [VCE-003.2]
RotaRod performance ([1]; 2 days after QA injury, 10 mg/kg i.p. daily): reversed
edema volume (MRI) ([1]; 5 days after QA injury, 10 mg/kg): edema volume was not affected
QA-induced DARPP32 neuronal loss ([1]; striatum, 10 mg/kg): prevented QA-induced DARRP32 neuronal loss
microglial activation (Iba-1) ([1]; striatum, 10 mg/kg): prevented QA-induced DARRP32 neuronal loss and microglial activation
reactive astrogliosis (GFAP) ([1]; striatum, 10 mg/kg): tendency to attenuate reactive astrogliosis
cells with mut-Htt aggregates [2]: reduced the number of cells with aggregates
